Where a name gives a salt, the structure may show the parent alone. Read-outs that look alike come from different tables or passages of the source.
Tests used:
[1] = target: T1, NR1-1a/NR2B NMDA receptor (Rattus norvegicus, UniProt P35439+Q00960); experiment: Patch-clamp inhibition of glutamate-evoked currents at recombinant NMDA receptors in transfected HEK293 cells; assay type: cell-based
T1 construct: expressed in transfected cells; host or cells: HEK293 cells (ATCC CRL1573)
Protocol: Transfected cells were identified by means of fluorescent green protein (GFP) fluorescence. Its genus was transfected together with the both receptor subunit genes.
Steroid-containing solutions were prepared from fresh solution (20 mmol·l^−1, of steroid dissolved in dimethyl sulfoxide, DMSO), which was added to the extracellular solution containing 1 mmol·l^−1 glutamic acid and 10 μmol·l^−1 of glycine. Identical concentrations of DMSO were added to all other extracellular solutions.
Current responses produced by extracellular application of glutamic acid solution (1 mmol·l^−1) were measured from the whole cell by patch-clamp technique, which is used for the study of transport of charged particles through model and also natural biological membranes. The currents were measured at membrane potential maintained at −60 mV and +60 mV.
Same amounts (0.3 μg) of cDNA coding NR1, NR2 and GFP (green fluorescent protein) (pQBI 25, Takara, Japan) were mixed with 0.9 μl of Matra-A Reagent (IBA, Göttingen, Germany) and added to confluent HEK293 cells cultivated in v 24-pit cultivating plate. After trypsination, the cells were re-suspended in Opti-MEM® I containing 1% fetal bovine serum. Subsequently, 20 mmol·l^−1 MgCl2, 1 mmol l^−1 D,L-2-amino-5-phosphonopentanoic acid, 3 mmol·l^−1 kynurenic acid was added to the mixture and cells were inoculated on the polylysine-coated glass plates having 25 mm in diameter. The following genes coding NMDA receptor subunits were used for transfection: NR1-1 a (GenBank accession No. U08261) and NR2B (GenBank accession No. M91562).
HEK293 Cultured cells were used for electrophysiological investigations with a latency of 16-40 h after transfection. Whole-cell currents were measured by patch-clamp amplifier (Axopatch 1D; Axon Instruments, Inc. Foster City, USA) after capacitance and serial resistance (<10 MΩ) compensation to 80-90%. Agonist-induced responses were filtered to 1 kHz (8-pole Bessel filter; Frequency Devices, Haverhill, USA), digitized with sampling frequency of 5 kHz and analyzed by pClamp version 9 software (Axon Instruments, USA). […] Extracellular solution (ECS) contained 160 mmol·l^−1 sodium chloride, 2.5 mmol·l^−1 potassium chloride, 10 mmol·l^−1 HEPES, 10 mmol·l^−1 glucose, 0.2 mmol·l^−1 EDTA a 0.7 mmol·l^−1 calcium chloride (pH adjusted to 7.3 by sodium hydroxide solution). Glycine was added to both testing and control solution. Moreover, bicuculline (10 μmol·l^−1) and tetrodotoxin (0.5 μmol·l^−1) was added to hippocampal cultures. Steroid-containing solutions were prepared from fresh solution (20 mmol·l^−1) of steroid dissolved in dimethyl sulfoxide (DMSO). Same concentrations of DMSO were used in all extracellular solutions. Control and experimental solutions were applied via microprocessor-controlled perfusion system with approx. rate of solution exchange in areas adjacent to cells reaching ˜10 ms.
Current responses produced by 100 μmol·l^−1 of NMDA (in the case of hipocampal neurones), or by 1 mmol·l^−1 of glutamate (on recombinant NMDA receptors) were measured at membrane potential maintained at −60 mV. […] Relative effect of steroid-induced inhibition was used for calculating IC50.

[2] = calculated from relative steroid-induced inhibition, Hill's coefficient 1.2, read-out: IC50
[3] = HEK293, read-out: Mean % change ± SD

T1 sequence (Q00960 27-1482, other chains not shown): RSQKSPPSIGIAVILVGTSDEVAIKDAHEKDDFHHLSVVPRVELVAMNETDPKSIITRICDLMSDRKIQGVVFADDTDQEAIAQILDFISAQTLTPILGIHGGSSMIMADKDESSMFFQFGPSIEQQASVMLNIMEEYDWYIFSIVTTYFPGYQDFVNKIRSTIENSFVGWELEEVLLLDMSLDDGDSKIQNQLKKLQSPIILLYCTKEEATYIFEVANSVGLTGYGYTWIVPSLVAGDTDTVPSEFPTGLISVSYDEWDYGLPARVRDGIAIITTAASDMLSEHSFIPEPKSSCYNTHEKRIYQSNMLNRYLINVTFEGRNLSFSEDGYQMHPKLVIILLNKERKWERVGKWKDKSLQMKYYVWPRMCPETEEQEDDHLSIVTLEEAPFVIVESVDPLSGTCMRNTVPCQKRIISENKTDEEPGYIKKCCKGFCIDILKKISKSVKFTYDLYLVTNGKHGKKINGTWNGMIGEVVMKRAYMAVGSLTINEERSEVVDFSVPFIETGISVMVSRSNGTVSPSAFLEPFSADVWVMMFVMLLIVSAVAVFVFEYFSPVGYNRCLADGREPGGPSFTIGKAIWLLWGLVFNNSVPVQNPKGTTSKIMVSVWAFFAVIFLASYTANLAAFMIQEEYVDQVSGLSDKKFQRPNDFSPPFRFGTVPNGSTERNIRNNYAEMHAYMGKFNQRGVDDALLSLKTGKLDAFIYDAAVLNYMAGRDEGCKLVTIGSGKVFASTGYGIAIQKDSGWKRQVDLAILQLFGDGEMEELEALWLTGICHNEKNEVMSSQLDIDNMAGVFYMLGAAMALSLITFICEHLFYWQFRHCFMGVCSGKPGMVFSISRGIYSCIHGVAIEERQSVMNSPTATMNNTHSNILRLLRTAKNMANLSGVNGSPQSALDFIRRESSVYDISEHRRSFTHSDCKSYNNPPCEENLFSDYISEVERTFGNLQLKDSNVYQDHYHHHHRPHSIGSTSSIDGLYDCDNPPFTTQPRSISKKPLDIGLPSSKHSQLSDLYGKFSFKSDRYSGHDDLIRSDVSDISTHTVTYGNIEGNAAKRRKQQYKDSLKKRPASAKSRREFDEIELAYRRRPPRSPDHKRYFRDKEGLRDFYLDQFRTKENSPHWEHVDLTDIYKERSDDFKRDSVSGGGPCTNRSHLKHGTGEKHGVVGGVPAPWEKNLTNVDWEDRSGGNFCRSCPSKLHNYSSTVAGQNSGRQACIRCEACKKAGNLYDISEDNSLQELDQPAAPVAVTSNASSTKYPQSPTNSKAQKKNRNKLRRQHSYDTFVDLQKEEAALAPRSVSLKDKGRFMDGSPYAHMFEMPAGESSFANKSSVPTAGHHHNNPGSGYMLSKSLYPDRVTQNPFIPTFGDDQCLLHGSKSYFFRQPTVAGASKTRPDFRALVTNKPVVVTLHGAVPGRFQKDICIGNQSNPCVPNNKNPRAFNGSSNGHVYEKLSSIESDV

`C[C@]12CC[C@@H](OS(=O)(=O)O)C[C@H]1CC[C@@H]1[C@@H]2CC[C@@]2(C)[C@H]1CCC2(F)F` (as salt: salt) [Compound 95, Pyridinium (3R,5R,8R,9S,10S,13S,14S)-17,17-difluoro-10,13-dimethylhexadecahydro-1H-cyclopenta[a]phenanthren-3-yl 3-sulfate] gave a melting point of 185 to 187 °C.
Work on `CC12CCCCC1C1CCC3CC(OS(=O)(=O)O)CCC3(C)C1CC2` (as salt: salt) [Compound 101, Pyridinium (2R,4aS,4bS,6aS,10bS,6aS,12aR)-4a,6a-dimethyloctadecahydrochrysen-2-yl 2-sulfate] yielded a melting point of 173 to 174 °C.
Compound `C=C1C[C@H]2[C@@H]3CC[C@@H]4C[C@H](OS(=O)(=O)O)CC[C@]4(C)[C@H]3CC[C@]2(C)C1` (as salt: salt) [Compound 114, Pyridinium (3R,5R,8S,9S,10S,13R,14S)-10,13-dimethyl-16-methylenhexadekhydro-1H-cyclopenta[a]phenanthren-3-yl 3-sulfate] has a melting point of 180 to 182 °C.
In the case of `COC(=O)[C@@]1(C)CC[C@H]2[C@@H](CC[C@@H]3C[C@H](OS(=O)(=O)O)CC[C@@]32C)C1` (as salt: sulfate) [Compound 40, Methyl (2S,4aS,4bS,7R,8aR,10aS)-2,4b-dimethyl-7-(sulfooxy)tetradecahydrophenanthren-2-carboxylate], the melting point is reported as 115 to 118 °C.
Work on `C[C@]12CC[C@@H](OC(=O)CCC(=O)O)C[C@H]1CC[C@H]1CCCC[C@@H]12` [Compound 9, 4-(((2R,4aS,4bS,8aR,10aR)-4a-Methyltetradecahydrophenanthren-2-yl)oxy)-4-oxobutanoic Acid] yielded a melting point of 131 to 133 °C.
In the case of `C[C@@H]1CC[C@H]2[C@@H](CC[C@@H]3C[C@H](OC(=O)CCC(=O)O)CC[C@@]32C)C1` [Compound 34, 4-(((2R,4aS,4bS,7R,8aS,10aR)-4a,7-Dimethyltetradecahydrophenanthren-2-yl)oxy)-4-oxobutanoic acid], the inhibition at 10 µM ([1]; HEK293, steroid concentration 10 μmol·l^−1, 1 mmol·l^−1 glutamate, −60 mV, read-out: Mean % change ± SD) is reported as 27 ± 10%, the IC50 [1, 2] is reported as 23.2 µM and the melting point is reported as 119 to 121 °C.
Compound `COC[C@@]1(C)CC[C@H]2[C@@H](CC[C@@H]3C[C@H](OC(=O)CCC(=O)O)CC[C@@]32C)C1` [Compound 45, 4-(((2R,4aS,4bS,7S,8aS,10aR)-7-(Methoxymethyl)-4a,7-dimethyltetradecahydrophenanthren-2-yl)oxy)-4-oxobutanoic acid] has a melting point of 107 to 109 °C.
In the case of `C[C@@]12CCC[C@H]1[C@@H]1CC[C@@H]3C[C@H](NC(=O)C(=O)O)CC[C@]3(C)[C@H]1CC2` [Compound 59, 2-(((3R,5R,8S,9S,10S,13S,14S)-10,13-Dimethylhexadecahydro-1H-cyclopenta[a]phenanthren-3-yl)amino)-2-oxoacetic acid], the inhibition at 10 µM [1, 3] is reported as 32 ± 5%, the IC50 [1, 2] is reported as 23.2 µM and the melting point is reported as 191 to 193 °C.
For `C[C@@]12CCC[C@H]1[C@@H]1CC[C@@H]3C[C@H](NC(=O)CC(=O)O)CC[C@]3(C)[C@H]1CC2` [Compound 61], the IC50 [1] was 15.4 µM, the inhibition at 10 µM [1, 3] was 40 ± 5.7% and the melting point was 126 to 128 °C.
For `C[C@]12CC[C@@H](CC(=O)O)C[C@H]1CC[C@@H]1[C@@H]2CC[C@]2(C)C(=O)CC[C@@H]12` [Compound 74, 2-((3R,5R,8R,9S,10S,13S,14S)-10,13-Dimethyl-17-oxohexadecahydro-1H-cyclopenta[a]phenanthren-3-yl)acetic acid], the inhibition at 50 µM [1, 3] was 58.6 ± 9.3%, the IC50 [1, 2] was 38.7 µM and the melting point was 130 to 133 °C.
`C=C(C)[C@H]1CC[C@H]2[C@@H]3CC[C@@H]4C[C@H](OC(=O)CC(=O)O)CC[C@]4(C)[C@H]3CC[C@]12C` [Compound 88, 3-(((3R,5R,8R,9S,10S,13S,14S,17R)-10,13-Dimethyl-17-(prop-1-en-2-yl)hexadecahydro-4H-cyclopenta[a]phenanthren-3-yl)oxy)-3-oxopropanoic acid] gave an inhibition at 10 µM [1, 3] of 46 ± 0.9%, an IC50 [1, 2] of 11.8 µM and a melting point of 147.7 to 148.3 °C.
Compound `C[C@@]12CCCCC1[C@@H]1CC[C@@H]3C[C@H](OC(=O)CC(=O)O)CC[C@]3(C)[C@H]1CC2` (stereo partly drawn) [Compound 102, 3-(((2R,4aS,4bS,6aS,10bS,12aR)-4a,6a-Dimethyloctadecahydrochrysen-2-yl)oxy)-3-oxopropanoic acid] has a melting point of 145.3 to 147.2 °C.
In the case of `C[C@@]12CCCCC1[C@@H]1CC[C@@H]3C[C@H](OC(=O)CCC(=O)O)CC[C@]3(C)[C@H]1CC2` (stereo partly drawn) [Compound 103, 4-(((2R,4aS,4bS,6aS,10bS,12aR)-4a,6a-Dimethyloctadecahydrochrysen-2-yl)oxy)-4-oxobutanoic acid], the melting point is reported as 136 to 138 °C.
Work on `C[C@H]1CC[C@H]2[C@@H]3CC[C@@H]4C[C@H](NC(=O)C(=O)[O-])CC[C@]4(C)[C@H]3CC[C@]12C.[Na+]` [Compound 138, Sodium 2-oxo-2-(((3R,5R,8S,9S,10S,13R,14S,17S)-10,13,17-trimethylhexadecahydro-1H-cyclopenta[a]phenanthren-3-yl)amino)acetate] yielded an inhibition at 1 µM [1, 3] of 17.5 ± 1.8%, an IC50 [1, 2] of 3.7 µM and a melting point of 330 to 334.6 °C.
`C[C@H]1CC[C@H]2[C@@H]3CC[C@@H]4C[C@H](NC(=O)CC(=O)O)CC[C@]4(C)[C@H]3CC[C@]12C` [Compound 140, 3-Oxo-3-(((3R,5R,8S,9S,10S,13R,14S,17S)-10,13,17-trimethylhexadecahydro-1H-cyclopenta[a]phenanthren-3-yl)amino)propanoic acid] showed an inhibition at 1 µM [1, 3] of 17.8 ± 6.5%, an IC50 [1, 2] of 3.9 µM and a melting point of 147.8 to 149.4 °C.
In the case of `CC[C@@H](C)C1CC[C@H]2[C@@H]3CC[C@@H]4C[C@H](NC(=O)C(=O)[O-])CC[C@]4(C)[C@H]3CC[C@]12C.[Na+]` (stereo partly drawn) [Compound 148, Sodium 2-(((3R,5R,8R,9S,10S,13R,14S)-17-((R)-sec-butyl)-10,13-dimethylhexadecahydro-1H-cyclopenta[a]phenanthren-3-yl)amino)-2-oxoacetate], the inhibition at 1 µM [1, 3] is reported as 7.3 ± 3%, the IC50 [1, 2] is reported as 9.4 µM and the melting point is reported as 182 to 184 °C (dec.).
For `CC[C@@H](C)C1CC[C@H]2[C@@H]3CC[C@@H]4C[C@H](NC(=O)CC(=O)O)CC[C@]4(C)[C@H]3CC[C@]12C` (stereo partly drawn) [Compound 149, 3-(((3R,5R,8R,9S,10S,13R,14S)-17-((R)-Sec-butyl)-10,13-dimethylhexadecahydro-1H-cyclopenta[a]phenanthren-3-yl)amino)-3-oxopropanoic acid], the inhibition at 10 µM [1, 3] was 33.6 ± 6.1%, the IC50 [1, 2] was 18.3 µM and the melting point was 163 to 165 °C.
